Data as given in ChEMBL document CHEMBL4421721, “Use of dynamin ring stabilizers” (2012).
Activity calls are given as the source filed them. The calls are words filed in the database; no cut-off is given here.

Legend:
Ovis aries [1] = species: Ovis aries; assay: Ring stabilizer activity at full-length native sheep brain dynamin 1 assessed as stimulation of GTPase activity at 5 uM in absence of PS liposomes using =>100 nM full-length dynamin 1
Ovis aries [2] = species: Ovis aries; assay: Ring stabilizer activity at full-length native sheep brain dynamin 1 assessed as stimulation of GTPase activity in absence of PS liposomes and in presence of tween-80
Mus musculus [3] = assay: Reduction in proteinuria in mouse model of proteinuria expressing ACTN4 gene gain of function mutation at 166 ug/100 g body weight, ip dosed at 0 hrs and measured every 2 hrs post dose up to 6 hrs by ELISA and creatinine companion assay; type: functional, organism-based
Ovis aries [4] = species: Ovis aries; assay: Inhibition of dis-assembly of pre-assembled full-length native sheep brain dynamin 1 pre-incubated in presence of PS liposomes followed compound addition at 5 uM and measured after 10 mins
Dynamin-1 (Homo sapiens) = molecular target: T1, Dynamin-1 (Homo sapiens) (UniProt Q05193); assay: Ring stabilizer activity at recombinant dynamin 1 dimeric GG2 form (unknown origin) assessed as stimulation of GTPase activity using 200 to 1000 nM full-length dynamin
T1 sequence (whole entry): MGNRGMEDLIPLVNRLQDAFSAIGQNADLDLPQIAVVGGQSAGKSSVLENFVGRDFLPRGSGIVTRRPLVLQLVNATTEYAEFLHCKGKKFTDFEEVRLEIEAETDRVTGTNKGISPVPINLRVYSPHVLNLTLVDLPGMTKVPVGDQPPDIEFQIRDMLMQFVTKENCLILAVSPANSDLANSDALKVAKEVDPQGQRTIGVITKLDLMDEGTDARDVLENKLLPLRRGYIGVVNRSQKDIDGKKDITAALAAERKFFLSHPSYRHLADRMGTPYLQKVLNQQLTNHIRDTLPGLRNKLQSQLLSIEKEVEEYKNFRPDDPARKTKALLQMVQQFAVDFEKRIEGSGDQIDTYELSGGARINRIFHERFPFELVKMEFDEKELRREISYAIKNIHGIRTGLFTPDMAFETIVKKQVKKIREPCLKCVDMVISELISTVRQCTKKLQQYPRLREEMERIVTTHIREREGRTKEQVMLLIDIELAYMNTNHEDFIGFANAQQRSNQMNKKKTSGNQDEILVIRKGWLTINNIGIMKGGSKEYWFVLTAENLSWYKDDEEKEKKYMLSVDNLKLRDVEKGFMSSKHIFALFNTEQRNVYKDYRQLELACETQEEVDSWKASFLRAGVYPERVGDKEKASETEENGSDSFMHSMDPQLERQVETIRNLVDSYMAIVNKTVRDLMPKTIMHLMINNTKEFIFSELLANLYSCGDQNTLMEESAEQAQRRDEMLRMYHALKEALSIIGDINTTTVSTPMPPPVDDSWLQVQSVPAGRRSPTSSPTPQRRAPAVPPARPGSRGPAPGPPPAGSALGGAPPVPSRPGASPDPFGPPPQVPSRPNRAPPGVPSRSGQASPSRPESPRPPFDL

Ovis aries [5] = species: Ovis aries; assay: Induction of helical shape alteration of full-length native sheep brain dynamin 1 by electron microscopic analysis
Ovis aries [6] = species: Ovis aries; assay: Ring stabilizer activity at full-length native sheep brain dynamin 1 assessed as increase in basal dynamin GTP hydrolysis up to 40 mins
Mus musculus [7] = assay: Reduction in proteinuria in BALB/c mouse model of LPS-induced reversible proteinuric kidney disease at 300 ug/100 g body weight, ip measured 2 to 6 hrs post dose by ELISA; type: functional, organism-based
Mus musculus [8] = species: Mus musculus; assay: Inhibition of endocytosis in mouse podocytes; type: functional, cell-based
Ovis aries [9] = species: Ovis aries; assay: Inhibition of full-length native sheep brain dynamin 1 assessed as reduction in PS liposomes-induced GTPase activity at 5 uM
Mus musculus [10] = assay: Reduction in proteinuria in BALB/c mouse model of LPS-induced reversible proteinuric kidney disease at 300 ug/100 g body weight, ip measured 8 hrs post dose by ELISA; type: functional, organism-based
Dynamin-1 (Mus musculus) [11] = molecular target: T2, Dynamin-1 (Mus musculus) (UniProt P39053); assay: Ring stabilizer activity at dynamin in mouse podocytes assessed as increase in well-defined stress fibers incubated for 10 mins; type: cell-based
T2 sequence (whole entry): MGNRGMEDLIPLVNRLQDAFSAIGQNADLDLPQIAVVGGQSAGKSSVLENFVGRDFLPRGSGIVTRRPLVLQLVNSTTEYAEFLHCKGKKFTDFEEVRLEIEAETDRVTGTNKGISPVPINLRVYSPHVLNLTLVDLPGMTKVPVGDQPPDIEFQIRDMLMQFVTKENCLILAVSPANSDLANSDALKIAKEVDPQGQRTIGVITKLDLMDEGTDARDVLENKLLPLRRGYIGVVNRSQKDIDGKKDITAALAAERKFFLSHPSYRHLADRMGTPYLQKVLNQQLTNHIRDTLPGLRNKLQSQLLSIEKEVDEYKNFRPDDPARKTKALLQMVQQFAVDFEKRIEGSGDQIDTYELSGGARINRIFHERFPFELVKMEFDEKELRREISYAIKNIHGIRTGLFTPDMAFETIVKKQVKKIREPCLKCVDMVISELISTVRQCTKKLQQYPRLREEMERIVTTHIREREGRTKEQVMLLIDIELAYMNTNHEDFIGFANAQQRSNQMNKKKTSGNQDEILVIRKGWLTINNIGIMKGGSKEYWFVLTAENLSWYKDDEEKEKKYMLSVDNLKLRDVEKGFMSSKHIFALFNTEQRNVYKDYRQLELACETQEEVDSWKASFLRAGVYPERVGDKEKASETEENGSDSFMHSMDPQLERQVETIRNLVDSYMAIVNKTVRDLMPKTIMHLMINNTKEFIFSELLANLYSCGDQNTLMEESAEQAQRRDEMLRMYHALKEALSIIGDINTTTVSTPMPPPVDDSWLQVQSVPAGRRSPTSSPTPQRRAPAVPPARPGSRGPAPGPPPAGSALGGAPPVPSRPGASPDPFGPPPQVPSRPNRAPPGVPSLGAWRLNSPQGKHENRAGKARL

Ovis aries [12] = species: Ovis aries; assay: Induction of self assembly of full-length native sheep brain dynamin 1 assessed as formation of dynamin rings at 5.4 uM using 200 nM full-length dynamin in absence of PS liposomes by electron microscopic analysis
Ovis aries [13] = species: Ovis aries; assay: Inhibition of full-length native sheep brain dynamin 1 assessed as reduction in PS liposomes-induced GTPase activity at 5 uM using 400 nM full-length dynamin 1
Dynamin-1 (Mus musculus) [14] = molecular target: T2, Dynamin-1 (Mus musculus); assay: Ring stabilizer activity at dynamin in mouse podocytes assessed as increase in focal adhesions incubated for 10 mins by paxillin staining based assay; type: cell-based
[15] = Inhibition of helical full-length native sheep brain dynamin 1 assessed as reduction in PS liposomes-induced GTPase activity; design: species or system Ovis aries
Ovis aries [16] = species: Ovis aries; assay: Ring stabilizer activity at full-length native sheep brain dynamin 1 assessed as stimulation of GTPase activity using 800 nM full-length dynamin in presence of 30 mM NaCl in absence of PS liposomes and measured after 4 mins; details: TDE = time-dependent effect
Ovis aries [17] = species: Ovis aries; assay: Ring stabilizer activity at full-length native sheep brain dynamin 1 assessed as stimulation of GTPase activity at 5 uM in absence of PS liposomes using <100 nM full-length dynamin 1
Ovis aries [18] = species: Ovis aries; assay: Ring stabilizer activity at full-length native sheep brain dynamin 1 assessed as increase in basal dynamin GTP hydrolysis up to 40 mins in presence of Gsn-F-actin
Ovis aries [19] = species: Ovis aries; assay: Ring stabilizer activity at full-length native sheep brain dynamin 1 assessed as stimulation of GTPase activity in absence of PS liposomes
[20] = Inhibition of full-length native sheep brain dynamin 1 assessed as reduction in PS liposomes-induced GTPase activity in presence of tween-80 using 7 nM full-length dynamin 1; design: species or system Ovis aries; details: read-out: IC50
[21] = Inhibition of full-length native sheep brain dynamin 1 assessed as reduction in PS liposomes-induced GTPase activity; design: species or system Ovis aries
Dynamin-2 (Homo sapiens) [22] = molecular target: T3, Dynamin-2 (Homo sapiens) (UniProt P50570); assay: Ring stabilizer activity at Dynamin-2 in human lymphoblasts assessed as accumulation in all cells of clathrin coated pits with highly elongated necks incubated for 30 mins by electron microscopic analysis; type: cell-based
T3 sequence (whole entry): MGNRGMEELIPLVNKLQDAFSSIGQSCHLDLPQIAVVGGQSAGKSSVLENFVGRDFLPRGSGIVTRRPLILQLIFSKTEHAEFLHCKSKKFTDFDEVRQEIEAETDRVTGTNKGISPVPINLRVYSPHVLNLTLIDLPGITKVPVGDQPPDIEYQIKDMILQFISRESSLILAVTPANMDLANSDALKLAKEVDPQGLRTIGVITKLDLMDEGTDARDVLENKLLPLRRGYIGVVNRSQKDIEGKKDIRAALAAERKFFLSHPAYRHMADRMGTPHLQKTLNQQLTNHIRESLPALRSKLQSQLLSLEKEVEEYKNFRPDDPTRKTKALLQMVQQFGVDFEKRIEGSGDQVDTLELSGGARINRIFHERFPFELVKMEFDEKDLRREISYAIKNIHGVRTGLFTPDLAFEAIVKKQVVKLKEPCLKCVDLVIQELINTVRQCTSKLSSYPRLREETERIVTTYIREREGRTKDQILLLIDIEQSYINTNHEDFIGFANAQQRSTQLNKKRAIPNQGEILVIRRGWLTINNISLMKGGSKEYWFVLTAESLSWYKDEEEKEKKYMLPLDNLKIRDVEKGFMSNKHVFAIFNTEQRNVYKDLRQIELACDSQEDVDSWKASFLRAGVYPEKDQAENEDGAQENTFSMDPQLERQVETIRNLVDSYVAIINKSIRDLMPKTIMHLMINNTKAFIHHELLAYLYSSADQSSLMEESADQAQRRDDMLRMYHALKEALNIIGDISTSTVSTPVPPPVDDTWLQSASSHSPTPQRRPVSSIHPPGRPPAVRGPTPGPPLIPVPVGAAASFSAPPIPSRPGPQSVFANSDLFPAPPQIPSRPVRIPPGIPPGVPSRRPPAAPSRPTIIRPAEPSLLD

Ovis aries [23] = species: Ovis aries; assay: Induction of ring assembly of full-length native sheep brain dynamin 1 at 300 uM using 520 nM full-length dynamin in presence of 40 mM NaCl by Coomassie staining based SDS gel electrophoresis method
Ovis aries [24] = species: Ovis aries; assay: Induction of ring assembly of full-length native sheep brain dynamin 1 at 100 uM using 520 nM full-length dynamin in presence of 40 to 60 […] by Coomassie staining based SDS gel electrophoresis method
Dynamin-2 (Homo sapiens) [25] = molecular target: T3, Dynamin-2 (Homo sapiens); assay: Ring stabilizer activity at Dynamin-2 in human lymphoblasts assessed as accumulation in all cells of clathrin coated pits with highly elongated necks encircled by electron dense rings incubated for 30 mins by electron microscopic analysis; type: cell-based
[26] = molecular target: T4, Dynamin-1 (Rattus norvegicus) (UniProt P21575); assay: Ring stabilizer activity at Dynamin-1 rat brain synaptosomes depolarised with KCl assessed as formation of trapped endocytic pits encircled by a single electron dense ring incubated for 30 mins by electron microscopic analysis; type: subcellular
T4 sequence (whole entry): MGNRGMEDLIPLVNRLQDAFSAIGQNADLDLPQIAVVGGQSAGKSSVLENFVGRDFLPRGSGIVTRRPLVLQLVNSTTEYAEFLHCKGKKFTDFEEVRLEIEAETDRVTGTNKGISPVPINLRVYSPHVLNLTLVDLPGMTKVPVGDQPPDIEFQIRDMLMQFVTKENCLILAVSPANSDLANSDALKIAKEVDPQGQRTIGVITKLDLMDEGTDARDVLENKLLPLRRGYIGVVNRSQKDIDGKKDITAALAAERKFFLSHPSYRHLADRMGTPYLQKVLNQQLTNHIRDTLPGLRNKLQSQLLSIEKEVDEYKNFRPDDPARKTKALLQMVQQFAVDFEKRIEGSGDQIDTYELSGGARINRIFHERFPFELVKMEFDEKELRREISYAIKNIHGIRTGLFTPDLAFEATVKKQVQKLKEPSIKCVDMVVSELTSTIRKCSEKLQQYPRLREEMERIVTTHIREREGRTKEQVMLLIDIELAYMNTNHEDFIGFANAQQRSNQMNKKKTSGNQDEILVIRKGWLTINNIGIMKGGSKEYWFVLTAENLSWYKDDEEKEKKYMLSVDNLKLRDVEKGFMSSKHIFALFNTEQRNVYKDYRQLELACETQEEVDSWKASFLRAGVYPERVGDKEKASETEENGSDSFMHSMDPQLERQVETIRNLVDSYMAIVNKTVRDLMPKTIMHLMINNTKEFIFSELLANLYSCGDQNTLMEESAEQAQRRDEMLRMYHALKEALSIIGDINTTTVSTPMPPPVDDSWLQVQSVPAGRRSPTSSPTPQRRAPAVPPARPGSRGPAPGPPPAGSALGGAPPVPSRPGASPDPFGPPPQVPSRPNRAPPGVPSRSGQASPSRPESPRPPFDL

For `N#C/C(=C\c1cc(O)c(O)c(O)c1)C(=O)NCCCNC(=O)/C(C#N)=C/c1cc(O)c(O)c(O)c1`, the Activity (Ovis aries [1]) was “Active”, the Activity (Ovis aries [2]) was “Active” and the Activity (Mus musculus [3]) was “Active”. For the same molecule, the inhibition (Ovis aries [4]) was “Active”, the Activity (Dynamin-1 (Homo sapiens)) was “inactive” and the Activity (Ovis aries [5]) was “Active”. The Activity (Ovis aries [6]) was “Active”, the Activity (Mus musculus [7]) was “Active” and the inhibition (Mus musculus [8]) was “Active”. The inhibition (Ovis aries [9]) was “Active”, the Activity (Mus musculus [10]) was “inactive” and the Activity (Dynamin-1 (Mus musculus) [11]) was “Active”. The Activity (Ovis aries [12]) was “Active”, the inhibition (Ovis aries [13]) was “inactive” and the Activity (Dynamin-1 (Mus musculus) [14]) was “Active”. The IC50 [15] was 500 nM, the Activity (Ovis aries [16]) was “Tde” and the Activity (Ovis aries [17]) was “inactive”. The Activity (Ovis aries [18]) was “Active”.
With `O=C(N/N=C/c1cc(O)c(O)cc1O)c1cc2ccccc2cc1O` the Activity (Ovis aries [2]) was “inactive”, the Activity (Ovis aries [19]) was “Active” and the IC50 [20] was 2700 nM. It also gave an IC50 [21] of 300 nM.
For `N#C/C(=C\c1ccc(O)c(O)c1)C(=O)NCCCNC(=O)/C(C#N)=C/c1ccc(O)c(O)c1`, the Activity (Dynamin-2 (Homo sapiens) [22]) was “Active”, the Activity (Ovis aries [2]) was “Active” and the Activity (Ovis aries [23]) was “Active”. For the same molecule, the Activity (Ovis aries [24]) was “Active”, the Activity (Dynamin-1 (Homo sapiens)) was “inactive” and the Activity (Dynamin-2 (Homo sapiens) [25]) was “Active”. The Activity [26] was “Active”.
